Assay [1] has as its target T1, Estrogen receptor (Homo sapiens) (UniProt P03372).
T1 sequence (whole entry): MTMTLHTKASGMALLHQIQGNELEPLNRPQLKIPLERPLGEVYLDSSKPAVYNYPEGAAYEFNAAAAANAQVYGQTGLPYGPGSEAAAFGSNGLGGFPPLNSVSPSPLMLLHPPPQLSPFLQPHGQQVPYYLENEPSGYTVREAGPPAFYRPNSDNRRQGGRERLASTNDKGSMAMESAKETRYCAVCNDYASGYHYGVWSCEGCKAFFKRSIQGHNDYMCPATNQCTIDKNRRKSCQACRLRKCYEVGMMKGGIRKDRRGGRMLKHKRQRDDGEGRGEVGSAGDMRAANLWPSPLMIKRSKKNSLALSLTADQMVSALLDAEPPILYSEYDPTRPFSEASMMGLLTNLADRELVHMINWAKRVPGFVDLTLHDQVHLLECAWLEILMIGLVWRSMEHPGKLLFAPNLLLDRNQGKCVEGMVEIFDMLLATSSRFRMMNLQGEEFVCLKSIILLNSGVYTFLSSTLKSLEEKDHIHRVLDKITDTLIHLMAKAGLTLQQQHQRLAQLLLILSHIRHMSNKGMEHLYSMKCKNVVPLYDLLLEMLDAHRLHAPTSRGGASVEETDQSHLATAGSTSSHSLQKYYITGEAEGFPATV
The assay can be described thus: Activity at human estrogen receptor expressed in transgenic Arabidopsis plant at >10 uM by pER8-GFP reporter assay.

Assay [2] concerns the target T1, Estrogen receptor (Homo sapiens). The assay can be described thus: Activity at human estrogen receptor expressed in transgenic Arabidopsis plant at >100 ug/mL by pER8-GFP reporter assay.
Assay [3] shares this target. The assay can be described thus: Activity at human estrogen receptor expressed in transgenic Arabidopsis plant at >100 uM by pER8-GFP reporter assay. Background: Reporter assays use an easily measured gene product as a stand-in for the process of interest.

The structures appear in SMILES notation. The source made the active and inactive calls. No cut-off for these calls is given here.

As for `C[C@]12CC[C@H]3[C@@H](CCC4=CC(=O)CC[C@@]43C)[C@@H]1CC[C@@H]2O`, in assay [1], the outcome was Active.

For `O=c1c(-c2ccc(O)cc2)coc2c([C@@H]3O[C@H](CO)[C@@H](O)[C@H](O)[C@H]3O)c(O)ccc12`, the result in assay [2] was Active.

With `O=C1C=CC(O)(c2cc(=O)c3c(O)cc(O)cc3o2)C=C1`, the result in assay [3] was Active.

For the origin of these results see ChEMBL document CHEMBL1158799, “The transgenic Arabidopsis plant system, pER8-GFP, as a powerful tool in searching for natural product estrogen-agonists/antagonists” (J Nat Prod, 2005).
